Earlier results on 2 compounds are cited in patent US20190321435A1, “ACORUS GRAMINEUS AS A PHARMACOLOGICALLY ACTIVE NATURAL TREATMENT IN THE ADDICTION OF NICOTINE” (priority 2018, published 2019).

For data set [1] the following is noted: cited from earlier work.
Data set [2] concerns intravenous self-administration (IVSA) of nicotine. To be noted: rodents; high-dose (Rauhut et al., 2003); cited from earlier work.

In the case of `CN1CCc2cccc3c2[C@H]1Cc1ccc(O)c(O)c1-3` [apomorphine], the “adverse effect of intravenous administration” value in data set [1] (administered intravenously) is “crystallization of the drug and lead to thrombus formation and pulmonary embolism”. The first-pass hepatic metabolism result in data set [1] (oral administration (swallowing)) is recorded as “significant first-pass hepatic metabolism”. In the case of `CC(NC(C)(C)C)C(=O)c1cccc(Cl)c1` (stereo not drawn) [bupropion], the self-administration of nicotine entry in data set [2] is listed as “reduce self-administration of nicotine”.
